“Also recorded” adds a separate entry of the source.
Tests used:
Sprague-Dawley rat = experiment: Food maintained responding test, regulation of food intake in rats; format: in vivo
[1] = tested on: opioid-dependent participants; experiment: Time to resumption of opioid substitution treatment and withdrawal scales (COWS, SOWS, OOWS); format: in vivo, human
Experimental: Three cohorts of nine (9) subjects (6 administered noribogaine and 3 administered placebo in each cohort) were evaluated for tolerability, pharmacokinetics, and efficacy. Cohort 1 received a single dose of 60 mg noribogaine or placebo. Cohort 2 received a single dose of 120 mg noribogaine or placebo. Cohort 3 received a single dose of 180 mg noribogaine or placebo.
Patients were evaluated based on the Clinical Opiate Withdrawal Scale (COWS), Subjective Opiate Withdrawal Scale (SOWS), and Objective Opiate Withdrawal Scale (OOWS) scoring systems over the period of time between administration of noribogaine (or placebo) until resumption of OST. These scales are outlined in Guidelines for the Psychosocially Assisted Pharmacological Treatment of Opioid Dependence, World Health Organization, Geneva (2009), Annex 10, which is incorporated herein by reference in its entirety. The scales measure the intensity of withdrawal symptoms, based on clinical, subjective, and objective indicia.

dogs = experiment: Single dose (acute oral) toxicity/TK study in dogs; format: in vivo, dog
[2] = tested on: healthy, drug-free male volunteers; experiment: Safety and tolerability of noribogaine in healthy humans; format: in vivo, human
Experimental: Safety and tolerability of noribogaine were tested in the group of volunteers from Example 9. […] Safety evaluations included clinical monitoring, recording of adverse events (AEs), safety laboratory tests, vital signs, ECG telemetry from −2 h to 6 h after dosing, and 12-lead electrocardiograms (ECGs) up to 216 hours post-dosing.

[3] = tested on: adult wild type short-fin zebrafish; experiment: Zebrafish novel tank test (NTT), anxiety-related endpoints; format: in vivo
Experimental: A total of 60 adult wild type short-fin zebrafish (˜50:50 male:female ratio) were used in this study. Fish were housed in groups of 20-30 fish per 40-L tank. Tanks were filled with filtered water and maintained at 25° C. Illumination (1000-1100 1×) was provided by ceiling-mounted fluorescent lights on a 12-h cycle (on: 6.00 h, off: 18.00 h) according to the standards of zebrafish care. All fish used in this study were experimentally naïve and fed Tetramin Tropical Flakes (Tetra USA, Blacksburg, Va.) twice a day. Following behavioral testing, the animals were euthanized in 500 mg/L Tricaine (Sigma-Aldrich, St. Louis, Mo.) buffered to pH=7.0. Animal experimentation in this study fully adhered to national and institutional guidelines and regulations.
As such, a 1 mg/L dose of noribogaine (DMX1 or Cpd) was chosen. A standard 20-min pre-treatment time was chosen based on experience with a wide range of other neuroactive compounds and the results of pilot studies. This exposure time was also sufficient for provoking physiological (e.g., cortisol and c-fos) responses of zebrafish to multiple drugs. Noribogaine exposure in this study was performed by submerging individual zebrafish in a 1-L plastic beaker for 20 min prior to the testing. The solution was regularly changed after each exposure, to ensure that each fish is exposed to a consistent concentration of noribogaine. Control fish were exposed to noribogaine-free water for the same treatment time, as described above.
Apparatus: Behavioral testing was performed between 11:00 and 15:00 h using tanks with water adjusted to the holding room temperature (25° C.). The study used the novel tank test (NTT) protocol. NTT represents one of the most commonly used neurophenotyping tests for adult zebrafish. To avoid the test battery or handling effects, each assay was performed once, on a separate individual naïve fish each time. Prior to testing, fish were pre-exposed individually in a 1-L plastic beaker for 20 min to either noribogaine-treated or noribogaine-free water. During testing, zebrafish behavior was recorded by two trained observers blind to the treatments, who manually scored different behavioral endpoints (inter- and intra-rater reliability in all experiments >0.85) with subsequent automated analysis of generated traces by Ethovision XT8.5 software (Noldus IT, Wageningen, Netherlands). The NTT, used to assess zebrafish anxiety and locomotion, was a 1.5-L trapezoidal tank (15 cm height×28 cm top×23 cm bottom×7 cm width; Aquatic Habitats, Apopka, Fla.) maximally filled with water and divided into two equal virtual horizontal portions by a line marking the outside walls. Fish were individually pre-exposed to water (water control) or noribogaine (1, 5 and 10 mg/L) for 20 min and tested in the standard 5-min NTT.
Behavioral analyses: Zebrafish behavior was recorded by trained observers, scoring the latency to reach the top half of the tank(s), time spent in top(s), number of transitions to top, as well as the number and duration(s) of freezing bouts. Freezing was defined as a total absence of movement, except for the gills and eyes, for >2 s. Trials were also recorded to a computer using a USB webcam (2.0-megapixel, Gigaware, UK) and subsequently analyzed by Ethovision XT8.5, assessing distance traveled (m), velocity (m/s), and meandering endpoints. During manual observation, videos were recorded in MPEG1 format with the maximum sample rate 30 fps for each trial by auto-focusing 2.0 MP USB webcams, placed 25 cm in front of the tanks, and attached to laptop computers. Recorded videos were analyzed with Ethovision XT8.5 software. All environments were calibrated for each arena and the calibration axes were placed to designate the origin (0,0) at the center of each tank. The track data for each fish was exported as raw data into separate spreadsheets. […]

[4] = tested on: healthy, drug-free male volunteers; experiment: Pupillometry (pupillary miosis) in healthy volunteers; format: in vivo, human; settings: 3-60 mg single oral dose, vs placebo p>0.9
Experimental: Pulse oximetry and capnography data were collected continuously using a GE Carescape B650 monitoring system from 2 hours prior to dosing and until six hours after dosing, and thereafter at 12, 24, 48 and 72 hours post-dosing. […] Pupillary miosis was assessed by pupillometry.

CC[C@H]1CC2C[C@H]3c4[nH]c5ccc(O)cc5c4CCN(C2)C13 [noribogaine]
decrease in food intake (Sprague-Dawley rat; 25 mg/kg PO, P<0.05): 10% | decrease in food intake (Sprague-Dawley rat; 50 mg/kg PO, P<0.001): 25% | effect on food consumption compared to vehicle (Sprague-Dawley rat; noribogaine 12.5 mg/kg PO 2 hours prior to test): no significant effect; also recorded: no effect on food consumption | effect on food consumption compared to vehicle (Sprague-Dawley rat; noribogaine 25 mg/kg PO 2 hours prior to test, P<0.05): significantly decreased food consumption | effect on food consumption compared to vehicle (Sprague-Dawley rat; noribogaine 50 mg/kg PO 2 hours prior to test, P<0.001): significantly decreased food consumption | withdrawal symptoms (COWS, OOWS, SOWS), first six hours following dosing ([1]; 120 mg): generally experienced fewer withdrawal symptoms than the other patients | average time to resumption of opioids (OST) ([1]; single 120 mg dose): greater than 20 hours | findings at NOAEL dose (dogs; 5 mg/kg): only transient reduction in food consumption in one dog | clinical signs (dogs; 10 mg/kg, from 20 minutes until 3 h 40 m post-dose): Convulsions and other CNS-related clinical signs | mortality (dogs; 5 (n=2) or 10 (n=2) mg/kg oral): no mortality occurred | adverse events, Mild ([2]; 3 mg): Dizziness; also recorded: Epistaxis; also recorded: Headache; also recorded: Back pain | adverse events, Moderate ([2]; 3 mg): Headache | number of adverse events reported ([2]; 3 mg dose group): five adverse events were reported by two subjects | adverse events, Mild ([2]; 10 mg): Headache | number of adverse events reported ([2]; 10 mg dose group, single subject): one adverse event | adverse events, Mild ([2]; 30 mg): Headache | number of adverse events reported ([2]; 30 mg dose group, single subject): one adverse event | oximetry, capnography, respiratory rate ([2]; 3-60 mg): no changes in oximetry or capnography, or changes in respiratory rate | vital signs and safety laboratory tests ([2]; 3-60 mg): no changes in vital signs or safety laboratory tests of note | QTcF values ([2]; 3-60 mg, at any time): ≤ 500 ms | single increase in QTcF ([2]; one subject dosed with 10 mg, 24 hours post-dosing): > 60 ms | anxiolytic-like behavior ([3]; 1 mg/L): robust anxiolytic-like behavior without any overt hyperactivity/hypoactivity or circling behaviors | efficacy, pilot experiments ([3]; 1 mg/L): sub-maximal efficacy | distance moved and velocity ([3]; 1-, 5- and 10-mg/L): moderate, but non-significant, decrease | freezing bouts frequency and duration of freezing ([3]; 1-, 5- and 10-mg/L): no difference in freezing bouts frequency | movement mobility (HF hi-mobility events) ([3]; 1-, 5- and 10-mg/L): dose-related disappearance of HF hi-mobility events | transitions to upper half of the tank ([3]; 1-, 5- and 10-mg/L vs control): none of the treatment groups showed a statistically significant change | overall turning rates and patterns (meander total) ([3]; 5- and 10-mg/L): statistically significant decrease in overall turning rates and patterns (meander) | swimming motor activity, pilot experiments ([3]; 5- and 10-mg/L): caused reduction in selected swimming motor activity levels | number of top transitions ([3]; 5 and 10 mg/L (control 10)): ~7 | EC50 ([3]; Danio rerio, 20 min, water immersion 20 min, read-out: half-efficacy on indices of anxiety levels (time in top, latency in top)): < 1 µg/mL | time spent in top portion of the tank ([3]; each of 1-, 5- and 10-mg/L): statistically significant increase in the duration of time spent in the defined top portion of the tank | latency to the upper half of the tank ([3]; each of 1-, 5- and 10-mg/L, 20 min immersion, 5-min NTT): statistically significant decrease in latency to the upper half of the tank | turning/rotation rate ([3]; significant at the 10 mg/L dose): decrease in turning/rotation rate | pupillary constriction (pupil diameter) [4]: no evidence of pupillary constriction

Reference: patent US20160038505A1, “METHODS AND COMPOSITIONS FOR TREATING IMPULSE CONTROL DISORDER, ANXIETY-RELATED DISORDERS, VIOLENCE AND/OR ANGER, OR REGULATING FOOD INTAKE” (priority 2014, published 2016)
